pIC50: −log10 of the molar value. Where only a bound is given, the exact number is not on record here.

The first data set has as its system trachea strips of passively sensitized guinea pigs, antigen (EWA) induced contraction. The data set can be described thus: Effects on passive Schultz-Dale reaction (broncho-dilatory effects). Format: cell-based, guinea pig (Hartley male). The settings on record: Cavia porcellus; concentration of 50% relaxation; sensitized guinea pig trachea, antigen EWA 1 μg/ml, cumulative addition, 37° C. Here is the method: (a) Effects on passive Schultz-Dale reaction (broncho-dilatory effects). Guinea pigs were passively sensitized as follows. Hartley male guinea pigs weighing 350 to 500 g were injected intraperitoneally with rabbit anti-egg albumin (EWA) serum prepared by the method of Eda et al. [Folia pharmacol., Japon 66, 237, (1970)]. After 24 hours, the guinea pigs were stunned and exsanguinated, and then trachea was excised. The zig-zag strips of the […] prepared by the method of Emmerson and Mackay [J. Pharm. Pharmacol., 31, 798, (1979)]. The strips were suspended in Krebs-Henseleit solution at 37° C. under aeration of a mixed gas of 95% oxygen and 5% carbon dioxide, and incubated for one hour. Antigen (EWA) was then introduced in the solution (final concentration; 1 μg/ml), and the contraction was measured by isotonictrasducer (TD-112s, made by Nihon Kohden K.K., Japan) and recorded on a recorder (Type 3066, made by Yokogawa-Hokushin Denki, K.K. Japan). After the contraction curves reached plateau, the compounds were successively added in order to get cumulative concentration-relaxation curves.
Usually pIC50 stands for the IC50 on a negative log10 scale, so that one unit is a factor of ten. On to `CCCCn1c(=O)c2ncn(C)c2c2ccccc21` [Compound 1, 5-n-Butyl-1-methyl-1H,5H-imidazo[4,5-c]quinolin-4-one], for which the pIC50 was 8.47.

For the compound `Cn1cnc2c(=O)n(Cc3ccco3)c3ccccc3c21` [Compound 3, 5-Furfuryl-1-methyl-1H,5H-imidazo[4,5-c]quinolin-4-one], the pIC50 is less than 4.70.

As for `Cn1cnc2c(=O)n(C)c3ccccc3c21` [Compound 4, 1,5-Dimethyl-1H,5H-imidazo[4,5-c]quinolin-4-one], the pIC50 is less than 4.70.

In the case of `CCn1c(=O)c2ncn(C)c2c2ccccc21` [Compound 5, 5-Ethyl-1-methyl-1H,5H-imidazo[4,5-c]quinolin-4-one], the negative logarithm of the IC50 (pIC50) was less than 4.70.

With `CCCn1c(=O)c2ncn(C)c2c2ccccc21` [Compound 6, 1-Methyl-5-n-propyl-1H,5H-imidazo[4,5-c]quinolin-4-one], the pIC50 was greater than 4.70.

As to `CCCCn1c(=O)c2ncn(Cc3ccccc3)c2c2ccccc21` [Compound 7, 1-Benzyl-5-n-butyl-1H,5H-imidazo[4,5-c]quinolin-4-one], the pIC50 is less than 4.70.

Regarding `CCCCn1c(=O)c2nc[nH]c2c2ccccc21` [Compound 8, 5-n-Butyl-1H,5H-imidazo[4,5-c]quinolin-4-one], the pIC50 is less than 4.70.

`Cn1cnc2c(=O)n(CC(=O)O)c3ccccc3c21` [Compound 9, 5-Carboxymethyl-1-methyl-1H,5H-imidazo[4,5-c]quinolin-4-one]: the pIC50 is less than 4.70.

`CCCCn1c(=O)c2ncn(CC)c2c2ccccc21.Cl` [Compound 16W, 5-n-Butyl-1-ethyl-1H,5H-imidazo[4,5-c]quinolin-4-one hydrochloride]: the negative-log IC50 (pIC50) is 5.39.

With `CCCCn1c(=O)c2ncn(CCC)c2c2ccccc21.Cl` [Compound 17W, 5-n-Butyl-1-n-propyl-1H,5H-imidazo[4,5-c]quinolin-4-one hydrochloride], the pIC50 was 5.62.

The test system of another data set is passive cutaneous anaphylaxis (PCA). As to the kind of experiment: Antiallergic effects: 48 hour-homologous passive cutaneous anaphylaxis (PCA) test in rats. It counts as in vivo, rat (Wistar male). To be noted: Rattus norvegicus; minimum effective dosage: suppression rate 50% or higher in at least one of three rats; oral, 1 hour before PCA challenge; read-out: Anti-allergic effect (MED). Here is the method:
Antiallergic effects of compounds were assessed by passive cutaneous anaphylaxis (PCA) test in rats. Wistar male rats weighing 180 to 220 g were used for collection of antiserum and Wistar male rats weighing 120 to 140 g for PCA test.
(i) Preparation of anti EWA serum in rat
Anti-EWA rat serum was prepared by the method of Stotland and Share [Can. J. Physiol. Pharmacol., 52, 1114, (1974)] as follows. That is, 1 mg of EWA, 20 mg of aluminium hydroxide gel and 0.5 ml of mixed vaccine of pertussis, diphtheria and tetanus were mixed, and the mixture was subcutaneously injected in 4 portions into the foot part of the rats. After 14 days, the blood of sensitized rats was collected from carotid artery. The serum was separated by centrifugation from collected blood, and kept at -80° C. Titer of the 48 hour homologous PCA tests of the serum was 1:32.
(ii) Effects on 48 hour-homologous PCA tests in rats
Groups each consisting of three male rats were used, and 0.05 ml of anti-EWA serum diluted to 8 times with a physiological saline, was sensitized passively by giving intradermal injection at two depilated points on the dorsum. After 47 hours, the test compound or its solvent (saline or CMC solution) was orally administrated, and 1 hour thereafter, PCA reaction was induced by intravenous administration of 1% Evan's blue-saline (0.5 ml/100 g) containing 2 mg of […]. After 30 minutes, animals were sacrificed by bleeding and dorsal skin was stripped to determin the extravasated dye at blue-dyed reaction site, by the method of Katayama et al. [Microbiol. Immunol., 22, 89 (1978)]. The blue-dyed spots were scissored out and placed in a test tube containing 1 ml of 1N sodium hydroxide and incubated at 37° C. for 24 hours. 9 ml of a mixture of 0.6N phosphate:acetone (5:13) was added thereto. After shaking, the mixture was centrifuged at 2500 rpm for 10 minutes. A supernatant was separated, and extravasated dye in the supernatant was quantified by measuring absorbance of the supernatant at 620 nm. Prepared calibration curve was used for the quantification. An average of measurements at the two positions was made a value for one animal, and suppression rate of the one animal was calculated by following equation: [formula]
Turning to `CCCCn1c(=O)c2ncn(C)c2c2ccccc21` [Compound 1, 5-n-Butyl-1-methyl-1H,5H-imidazo[4,5-c]quinolin-4-one], the minimal effective dose is less than 10 mg/kg.

`Cn1cnc2c(=O)n(Cc3ccco3)c3ccccc3c21` [Compound 3, 5-Furfuryl-1-methyl-1H,5H-imidazo[4,5-c]quinolin-4-one]: the minimal effective dose is greater than 100 mg/kg.

As for `Cn1cnc2c(=O)n(C)c3ccccc3c21` [Compound 4, 1,5-Dimethyl-1H,5H-imidazo[4,5-c]quinolin-4-one], the minimal effective dose is greater than 10 mg/kg.

As to `CCn1c(=O)c2ncn(C)c2c2ccccc21` [Compound 5, 5-Ethyl-1-methyl-1H,5H-imidazo[4,5-c]quinolin-4-one], the minimal effective dose is less than 10 mg/kg.

For the compound `CCCn1c(=O)c2ncn(C)c2c2ccccc21` [Compound 6, 1-Methyl-5-n-propyl-1H,5H-imidazo[4,5-c]quinolin-4-one], the minimal effective dose is less than 10 mg/kg.

Regarding `CCCCn1c(=O)c2ncn(Cc3ccccc3)c2c2ccccc21` [Compound 7, 1-Benzyl-5-n-butyl-1H,5H-imidazo[4,5-c]quinolin-4-one], the minimal effective dose was greater than 100 mg/kg.

For the compound `CCCCn1c(=O)c2nc[nH]c2c2ccccc21` [Compound 8, 5-n-Butyl-1H,5H-imidazo[4,5-c]quinolin-4-one], the minimal effective dose was greater than 100 mg/kg.

For `Cn1cnc2c(=O)n(CC(=O)O)c3ccccc3c21` [Compound 9, 5-Carboxymethyl-1-methyl-1H,5H-imidazo[4,5-c]quinolin-4-one], the minimal effective dose was greater than 100 mg/kg.

For `CCCCn1c(=O)c2ncn(CC)c2c2ccccc21.Cl` [Compound 16W, 5-n-Butyl-1-ethyl-1H,5H-imidazo[4,5-c]quinolin-4-one hydrochloride], the minimal effective dose is greater than 100 mg/kg.

`CCCCn1c(=O)c2ncn(CCC)c2c2ccccc21.Cl` [Compound 17W, 5-n-Butyl-1-n-propyl-1H,5H-imidazo[4,5-c]quinolin-4-one hydrochloride]: the minimal effective dose was greater than 100 mg/kg.

In the next data set the test system is experimental asthma in passively sensitized guinea pigs. The data set can be described thus: Effects on experimental asthma. The settings on record: 50 mg/kg orally, one hour before aerosol antigen 1.5% EWA; mean + SEM of 5 or 10 animals; control 254 ± 18. It counts as in vivo, guinea pig (Hartley male). Here is the method:
(c) Effects on experimental asthma Guinea pigs were passively sensitized as follows. Hartley male guinea pigs weighing 350 to 500 g were intraperitoneally injected with 1 ml of rabbit EWA serum prepared by the method of Eda et al. [Folia pharmacol., Japon, 66, 237 (1970)]. The animals were treated with intraperitoneal injection of diphenhydramine (20 mg/kg) and propranolol (5 mg/kg), 30 minutes before administration of test compounds. 17 hours after the sensitization, the test compounds (50 mg/kg) were orally administrated to sensitized animals. After one hour from the administration of the test compounds, the guinea pigs were placed in plastic observation box and were exposed to an aerosal antigen of 1.5% EWA. The time until the onset of respiratory […] symptom [collapse time (second)] was measured as a result of experimental asthma.
With `CCCCn1c(=O)c2ncn(C)c2c2ccccc21` [Compound 1, 5-n-Butyl-1-methyl-1H,5H-imidazo[4,5-c]quinolin-4-one], the “Experimental asthma (collapse time)” value amounted to 517 ± 37 s.

With `CCn1c(=O)c2ncn(C)c2c2ccccc21` [Compound 5, 5-Ethyl-1-methyl-1H,5H-imidazo[4,5-c]quinolin-4-one], the “Experimental asthma (collapse time)” value was found to be 519 ± 78 s.

With `CCCn1c(=O)c2ncn(C)c2c2ccccc21` [Compound 6, 1-Methyl-5-n-propyl-1H,5H-imidazo[4,5-c]quinolin-4-one], the “Experimental asthma (collapse time)” value was found to be 600 ± 0 s.

Consider `Cn1cnc2c(=O)n(CC(=O)O)c3ccccc3c21` [Compound 9, 5-Carboxymethyl-1-methyl-1H,5H-imidazo[4,5-c]quinolin-4-one], for which the “Experimental asthma (collapse time)” value worked out at 532 ± 31 s.

Turning to `CCCCn1c(=O)c2ncn(CC)c2c2ccccc21.Cl` [Compound 16W, 5-n-Butyl-1-ethyl-1H,5H-imidazo[4,5-c]quinolin-4-one hydrochloride], the “Experimental asthma (collapse time)” value is 422 ± 43 s.

For the compound `CCCCn1c(=O)c2ncn(CCC)c2c2ccccc21.Cl` [Compound 17W, 5-n-Butyl-1-n-propyl-1H,5H-imidazo[4,5-c]quinolin-4-one hydrochloride], the “Experimental asthma (collapse time)” value amounted to 484 ± 31 s.

Test system in the next data set: not listed separately
As to the kind of experiment: Acute toxicity. To be noted: mouse, in vivo; po, mortality for seven days, male dd-mice. On the procedure:
The compounds were orally administrated (po: 300 mg/kg) to male dd-mice weighing 20 to 25 g. LD50 was determined by observing the mortality for seven days after the administration.
In general, LD50 refers to the dose at which mortality reaches 50%. `CCCCn1c(=O)c2ncn(C)c2c2ccccc21` [Compound 1, 5-n-Butyl-1-methyl-1H,5H-imidazo[4,5-c]quinolin-4-one] returned an LD50 at 168 h greater than 300 mg/kg.

`Cn1cnc2c(=O)n(Cc3ccco3)c3ccccc3c21` [Compound 3, 5-Furfuryl-1-methyl-1H,5H-imidazo[4,5-c]quinolin-4-one] gave an LD50 at 168 h greater than 300 mg/kg.

In turn, `Cn1cnc2c(=O)n(C)c3ccccc3c21` [Compound 4, 1,5-Dimethyl-1H,5H-imidazo[4,5-c]quinolin-4-one] showed an LD50 at 168 h greater than 200 mg/kg.

For the compound `CCn1c(=O)c2ncn(C)c2c2ccccc21` [Compound 5, 5-Ethyl-1-methyl-1H,5H-imidazo[4,5-c]quinolin-4-one], the median lethal dose (LD50) at 168 h was greater than 100 mg/kg.

Consider `CCCn1c(=O)c2ncn(C)c2c2ccccc21` [Compound 6, 1-Methyl-5-n-propyl-1H,5H-imidazo[4,5-c]quinolin-4-one], for which the median lethal dose (LD50) at 168 h is greater than 200 mg/kg.

In the case of `CCCCn1c(=O)c2ncn(Cc3ccccc3)c2c2ccccc21` [Compound 7, 1-Benzyl-5-n-butyl-1H,5H-imidazo[4,5-c]quinolin-4-one], the LD50 at 168 h was greater than 300 mg/kg.

Turning to `CCCCn1c(=O)c2nc[nH]c2c2ccccc21` [Compound 8, 5-n-Butyl-1H,5H-imidazo[4,5-c]quinolin-4-one], the 50% lethal dose (LD50) at 168 h is greater than 300 mg/kg.

Take `Cn1cnc2c(=O)n(CC(=O)O)c3ccccc3c21` [Compound 9, 5-Carboxymethyl-1-methyl-1H,5H-imidazo[4,5-c]quinolin-4-one]: the LD50 at 168 h is greater than 300 mg/kg.

Turning to `CCCCn1c(=O)c2ncn(CC)c2c2ccccc21.Cl` [Compound 16W, 5-n-Butyl-1-ethyl-1H,5H-imidazo[4,5-c]quinolin-4-one hydrochloride], the LD50 at 168 h was greater than 300 mg/kg.

For the compound `CCCCn1c(=O)c2ncn(CCC)c2c2ccccc21.Cl` [Compound 17W, 5-n-Butyl-1-n-propyl-1H,5H-imidazo[4,5-c]quinolin-4-one hydrochloride], the LD50 at 168 h was greater than 300 mg/kg.

The values are drawn from patent US4994468A, “Imidazoquinolone derivatives” (Kyowa Hakko Kogyo Co., Ltd., priority 1989, dated 1991).
